Reference: patent US8227470B2, “Combination treatment of solid cancers with antimetabolites and tyrosine kinase inhibitors” (AB Science, priority 2007, dated 2012)
“Also recorded” adds a separate entry of the source. One block for each compound: values may come before it.

Columns and labels:
[1] = tested on: ovarian tumour cell lines; assay: WST-1 proliferation assay, ovarian lines with paclitaxel; assay type: cell-based
Description: (§1) Pancreatic, colon and prostate cancer cell lines (generous gift from Dr. Juan Iovanna, INSERM U624, Marseille, France), breast and ovarian cancer cell lines (generous gift from Dr. Patrice Dubreuil, UMR 599 INSERM, Marseille, France), and lung cancer cell line (generous gift from Pr. Christian Auclair, UMR 8113 CNRS) were cultured as monolayers in RPMI 1640 medium containing L-glutamine supplemented with 100 U/mL penicillin and 100 μg/mL streptomycin, and 10% v/v heat-inactivated foetal calf serum (AbCys Lot SO2823S1800) under standard culture conditions (5% CO2, 95% air in humidified chamber at 37° C.).
(§2) During proliferation assay, all cells were grown in medium containing 1% FCS.
(§3) Colorimetric cell proliferation and viability assay (reagent WST-1 purchased from Roche cat N° 1644807)
(§4) The cells were washed once and resuspended in RPMI 1% FCS. […]
(§5) For treatment with combination of AB1010 and gemcitabine, the cells were first resuspended in medium RPMI 1% FCS containing AB1010 at the concentrations of 0, 2, 5 and 10 μM. […] The absorbance of the samples was measured at 490 nm using an EL800 Universal microplate reader (Bio-Tek Instruments Inc.).
(§6) Each sample was done in duplicate, the absorbance values were transferred to an excel file, the average and standard deviation of the duplicates were calculated and expressed as a percentage of the proliferation obtained in absence of treatment. […]

breast tumour cell lines = assay: WST-1 proliferation assay, breast lines with docetaxel; assay type: cell-based
Description: as §1, §2, §3, §4, §5, §6

Mia Paca-2 = assay: WST-1 cell proliferation and viability assay; assay type: cell-based; conditions: for sensitization to gemcitabine by pre-treatment: MiaPaca-2, pre-treatment 12-16 hours (AB1010 5 and 10 μM; STI571 up to 10 μM) before gemcitabine
Description: as §1, §2, §3
(§7) The cells were washed once and resuspended in RPMI 1% FCS. Cells at 1.10^4/50 μl were plated per well of a 96 well plate.
(§8) Drug dilutions were prepared in a 96 well plate and obtained by sequential dilutions of AB1010 or gemcitabine in RPMI 1.
(§9) Treatment was started by the addition of 50 μl of a 2× concentrated drug solution to a final volume of 100 μl.
For treatment with combination of AB1010 and gemcitabine, the cells were first resuspended in medium RPMI 1% FCS containing AB1010 at the concentrations of 0, 2, 5 and 10 μM. 1.10^4 cells/50 μl were plated per well of a 96 wells plate and the plates placed in the incubator o/n before treatment with cytotoxic agents. Cytotoxic agent treatment was initiated by addition of 50 μl of a 2× drug dilution (and containing the respective AB1010 drug concentration) to a final volume of 100 μl. […] The absorbance of the samples was measured at 490 nm using an EL800 Universal microplate reader (Bio-Tek Instruments Inc.).
A background control without cells was used as a blank for the ELISA reader. […]
as §6

Panc-1 = assay: WST-1 cell proliferation and viability assay; assay type: cell-based
Description: as §1, §2, §3, §7, §8, §9
(§10) For treatment with combination of AB1010 and gemcitabine, the cells were first resuspended in medium RPMI 1% FCS containing AB1010 at the concentrations of 0, 2, 5 and 10 μM. 1.10^4 cells/50 μl were plated per well of a 96 wells plate and the plates placed in the incubator o/n before treatment with cytotoxic agents. Cytotoxic agent treatment was initiated by addition of 50 μl of a 2× drug dilution (and containing the respective AB1010 drug concentration) to a final volume of 100 μl. AB1010 final concentrations remained 0, 2, 5 and 10 μM. After incubating for 48-72 hours at 37° C., 10 μl of a ½ dilution of WST-1 reagent was added to each well and the plates were returned to the incubator for an additional 4 hours. The absorbance of the samples was measured at 490 nm using an EL800 Universal microplate reader (Bio-Tek Instruments Inc.).
(§11) A background control without cells was used as a blank for the ELISA reader.
(§12) The positive control of the assay corresponds to the cell proliferation obtained in the absence of drug treatment (100% proliferation).
(§13) Each sample was done in duplicate, the absorbance values were transferred to an excel file, the average and standard deviation of the duplicates were calculated and expressed as a percentage of the proliferation obtained in absence of treatment.
(§14) To determine the IC50 concentration of gemcitabine on pancreatic cell lines, the cells were grown in 1% FCS and exposed to different doses of the drug.
(§15) To determine the IC50 concentration of gemcitabine used in association with AB1010, pancreatic cell lines grown in 1% FCS were pre-treated with AB1010 for about 12-16 hours before being exposed to different doses of the gemcitabine.

Capan-2 = assay: WST-1 cell proliferation and viability assay; assay type: cell-based
Description: as §1, §2, §3, §7, §8, §9, §10, §11, §12, §13, §14, §15

BxPC-3 = assay: WST-1 cell proliferation and viability assay; assay type: cell-based
Description: as §1, §2, §3, §7, §8, §9, §10, §11, §12, §13, §14, §15

FAK kinase [2] = molecular target: T1, FAK kinase (Homo sapiens, UniProt Q05397); assay: SelectScreen kinase Profiling (Invitrogen), purified kinases; assay type: biochemical; conditions: inhibitor at 1 μM (1,000 nM); for inhibition at 1 µM: read-out: Percentage of inhibition of FAK kinase activity
HRT-18 = assay: WST-1 proliferation assay, sensitization to Irinotecan; assay type: cell-based; conditions: most resistant colorectal cell line HRT-18; AB1010 pre-treatment
Description: as §1, §2, §3, §7
[…] The absorbance of the samples was measured at 490 nm using an EL800 Universal microplate reader (Bio-Tek Instruments Inc.).
as §6

[3] = tested on: human mast cell line expressing the JMΔ27 mutated c-kit; assay: Apoptosis induction in mast cell line; assay type: cell-based; conditions: 0.1 μM, after 48 hours; control cells 10% apoptotic
Description: (§16) In this experiment, after 48 hours, 0.1 μM AB1010 induced apoptosis of approximately 50% versus control cells in which 10% of cells were apoptotic. In addition, a separate cell line (Ba/F3-derived) expressing JMΔ27 was tested and apoptosis was induced to a level of approximately 85%.

[4] = tested on: cell line (Ba/F3-derived) expressing JMΔ27; assay: Apoptosis induction in Ba/F3-derived cell line; assay type: cell-based
Description: as §16

FAK kinase [5] = molecular target: T1, FAK kinase; assay: Western blot of FAK activation status (anti PY / anti phospho FAK); assay type: cell-based; conditions: FIG. 3B
Description: Pancreatic tumour cells lines are described to express high level of the non-receptor tyrosine kinase FAK that contributes to resistance to gemcitabine. […] By the use of either anti PY or anti phospho FAK antibodies, we studied by western blot assay the activation status of FAK kinase.

[6] = tested on: rectum HRT-18, and colon Caco-2 and SW-480 cell lines; assay: WST-1 proliferation assay, sensitization to gemcitabine; assay type: cell-based; conditions: rectum HRT-18, colon Caco-2 and SW-480; AB1010 pre-treatment
Description: as §1, §2, §3, §7, §10, §13
(§17) In order to evaluate the ability of AB1010 to sensitize other tumour types to gemcitabine, we performed similar studies on prostate, lung, ovarian and colon tumour cell lines.

[7] = tested on: ovarian OVCAR-3 cell lines; assay: as above; assay type: cell-based; conditions: AB1010 pre-treatment
Description: as §1, §2, §3, §7, §10, §13, §17

[8] = tested on: prostate DU145, and C4-2 cell lines; assay: as above; assay type: cell-based; conditions: AB1010 pre-treatment
Description: as §1, §2, §3, §7, §10, §13, §17

[9] = tested on: lung A549 and H1299 cell lines; assay: as above; assay type: cell-based; conditions: AB1010 pre-treatment
Description: as §1, §2, §3, §7, §10, §13, §17

colon HT-29 = assay: as above; assay type: cell-based; conditions: colon HT-29, the one resistant line in which sensitivity was not restored
Description: as §1, §2, §3, §7, §10, §13, §17

T1 sequence (Q05397 whole entry): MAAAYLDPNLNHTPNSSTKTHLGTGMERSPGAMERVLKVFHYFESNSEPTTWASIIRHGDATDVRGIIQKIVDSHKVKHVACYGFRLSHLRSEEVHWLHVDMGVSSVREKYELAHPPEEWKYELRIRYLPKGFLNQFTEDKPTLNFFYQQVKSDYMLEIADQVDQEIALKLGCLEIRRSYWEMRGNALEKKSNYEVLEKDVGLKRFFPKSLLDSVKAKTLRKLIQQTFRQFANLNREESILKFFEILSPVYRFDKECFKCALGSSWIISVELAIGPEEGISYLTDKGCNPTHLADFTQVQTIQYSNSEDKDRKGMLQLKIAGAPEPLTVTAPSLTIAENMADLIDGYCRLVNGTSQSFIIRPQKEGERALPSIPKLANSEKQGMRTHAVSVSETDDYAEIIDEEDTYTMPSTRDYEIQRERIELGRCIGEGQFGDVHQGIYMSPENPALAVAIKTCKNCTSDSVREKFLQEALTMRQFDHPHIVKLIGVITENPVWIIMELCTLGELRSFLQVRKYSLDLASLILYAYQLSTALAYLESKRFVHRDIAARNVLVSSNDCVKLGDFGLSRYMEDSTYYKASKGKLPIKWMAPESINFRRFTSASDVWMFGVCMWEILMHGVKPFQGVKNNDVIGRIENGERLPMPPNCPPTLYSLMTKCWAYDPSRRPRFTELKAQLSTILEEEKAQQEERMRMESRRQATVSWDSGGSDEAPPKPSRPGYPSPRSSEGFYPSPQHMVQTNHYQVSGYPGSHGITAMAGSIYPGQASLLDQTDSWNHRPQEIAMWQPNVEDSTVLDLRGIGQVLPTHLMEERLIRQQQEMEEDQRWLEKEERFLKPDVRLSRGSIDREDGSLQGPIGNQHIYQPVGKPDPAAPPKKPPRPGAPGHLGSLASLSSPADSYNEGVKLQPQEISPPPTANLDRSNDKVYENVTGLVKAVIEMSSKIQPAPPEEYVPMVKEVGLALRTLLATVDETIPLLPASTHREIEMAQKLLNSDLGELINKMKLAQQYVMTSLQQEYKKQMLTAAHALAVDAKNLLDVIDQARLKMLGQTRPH

IC50 (BxPC-3; Homo sapiens, BxPC-3, 1% FCS, drug alone, read-out: IC50, inhibition of proliferation): 2 to 20 nM
SMILES: Nc1ccn(C2OC(CO)C(O)C2(F)F)c(=O)n1 (stereo not shown) [gemcitabine, 4-amino-1-[3,3-difluoro-4-hydroxy-5-(hydroxymethyl)tetrahydrofuran-2-yl]-1H-pyrimidin-2-one, reference compound]
sensitivity to gemcitabine (Mia Paca-2; Mia Paca-2, 1% FCS, drug alone): lack of sensitivity | sensitivity to gemcitabine (Panc-1; Panc-1, 1% FCS, drug alone): lack of sensitivity | IC50 (Capan-2; Homo sapiens, Capan-2, 1% FCS, drug alone, read-out: IC50, inhibition of proliferation): 2 to 20 nM

Percentage of inhibition of FAK kinase activity (FAK kinase [2]): 75%
SMILES: CC(C)(C)n1nc(-c2ccc(Cl)cc2)c2c(N)ncnc21 [PP2]

inhibition at 1 µM (FAK kinase [2]): 9%
SMILES: Cc1ccc(NC(=O)c2ccc(CN3CCN(C)CC3)cc2)cc1Nc1nccc(-c2cccnc2)n1 [STI571]
sensitization to gemcitabine by pre-treatment (Mia Paca-2): does not sensitize; also recorded: does not lead to the same result

Continued, compound first:

SMILES: CC(=O)O[C@H]1C(=O)[C@@]2(C)[C@H]([C@H](OC(=O)c3ccccc3)[C@]3(O)C[C@H](OC(=O)[C@H](O)[C@@H](NC(=O)c4ccccc4)c4ccccc4)C(C)=C1C3(C)C)[C@]1(OC(C)=O)CO[C@@H]1C[C@@H]2O [Paclitaxel, reference compound]
sensitivity to Paclitaxel ([1]; five ovarian cell lines, drug alone): Three out of the five ovarian cell lines tested exhibit strong sensitivity

SMILES: CC(=O)O[C@@]12CO[C@@H]1C[C@H](O)[C@@]1(C)C(=O)[C@H](O)C3=C(C)[C@@H](OC(=O)[C@H](O)[C@@H](NC(=O)OC(C)(C)C)c4ccccc4)C[C@@](O)([C@@H](OC(=O)c4ccccc4)[C@H]21)C3(C)C [Docetaxel, reference compound]
sensitivity to Docetaxel (breast tumour cell lines; breast cancer cell lines, drug alone): most of the breast cancer cell lines tested exhibit resistance

SMILES: Cc1ccc(NC(=O)c2ccc(CN3CCN(C)CC3)cc2)cc1Nc1nc(-c2cccnc2)cs1 [AB1010, 4-(4-Methyl-piperazin-1-ylmethyl)-N-[4-methyl-3-(4-pyridin-3-yl-thiazol-2-ylamino)-phenyl]-benzamide]
restoration of sensitivity to Paclitaxel ([1]; resistant ovarian tumour cell lines, AB1010 pre-treatment): restores sensitivity | sensitization to Irinotecan (CPT-11) (HRT-18): good sensitization | inhibition at 1 µM (FAK kinase [2]): 21% | apoptosis induced [3]: approximately 50% | sensitization to gemcitabine by pre-treatment (Mia Paca-2): reverse resistance | sensitization to gemcitabine by pre-treatment (Panc-1; Panc-1, AB1010 5 and 10 μM pre-treatment 12-16 hours before gemcitabine): reverse resistance | sensitization to gemcitabine by pre-treatment (Capan-2; gemcitabine-sensitive Capan-2, AB1010 pre-treatment): not observed | sensitization to gemcitabine by pre-treatment (BxPC-3; gemcitabine-sensitive BxPC-3, AB1010 pre-treatment): not observed | apoptosis induced [4]: approximately 85% | inhibition of FAK autoactivation (FAK kinase [5]): inhibits partially | sensitization to gemcitabine [6]: AB1010 sensitizes rectum HRT-18, and colon Caco-2 and SW-480 | sensitization to gemcitabine [7]: AB1010 sensitizes ovarian OVCAR-3 cell lines to gemcitabine | sensitization to gemcitabine [8]: AB1010 sensitizes prostate DU145, and C4-2 cell lines to gemcitabine | sensitization to gemcitabine [9]: AB1010 sensitizes lung A549 and H1299 cell lines to gemcitabine | restoration of sensitivity to gemcitabine (colon HT-29): except one | sensitization to docetaxel (breast tumour cell lines; docetaxel-resistant breast cancer cell lines, AB1010 pre-treatment): good sensitization by AB1010 for 6 out of 11
